Key:
[1] = Liquid, Falling or rolling sphere viscometry
[2] = xn = mol fraction of the nth substance listed; conditions: Liquid, x2 = 0

CC(C)OC(C)C [diisopropyl ether]
viscosity [mPa·s], [1]
Conditions	100 kPa	20000 kPa	40000 kPa	60000 kPa	80000 kPa	100000 kPa
293.15 K	0.33	0.396	0.466	0.542	0.625	0.715
313.15 K	0.27	0.332	0.392	0.454	0.52	0.588
333.15 K	0.225	0.282	0.342	0.402	0.46	0.517
353.15 K	–	0.258	0.308	0.358	0.408	0.457

CC(C)OC(C)C [diisopropyl ether] + CCOC(F)(C(F)(F)C(F)(F)C(F)(F)F)C(F)(C(F)(F)F)C(F)(F)F
viscosity [mPa·s], [2]
Conditions	293.15 K	313.15 K	333.15 K	353.15 K
100 kPa, Capillary tube (Ostwald / Ubbelohde) method	0.33	0.27	0.225	–
20000 kPa, Falling or rolling sphere viscometry	0.396	0.332	0.282	0.258
40000 kPa, Falling or rolling sphere viscometry	0.466	0.392	0.342	0.308
60000 kPa, Falling or rolling sphere viscometry	0.542	0.454	0.402	0.358
80000 kPa, Falling or rolling sphere viscometry	0.625	0.52	0.46	0.408
100000 kPa, Falling or rolling sphere viscometry	0.715	0.588	0.517	0.457

CCOC(F)(C(F)(F)C(F)(F)C(F)(F)F)C(F)(C(F)(F)F)C(F)(F)F (stereo not given) [2-trifluoromethyl-3-ethoxydodecafluorohexane]
viscosity [mPa·s], [1]
Conditions	100 kPa	20000 kPa	40000 kPa	60000 kPa	80000 kPa	100000 kPa
293.15 K	1.369	1.894	2.645	3.622	4.894	6.553
313.15 K	0.983	1.356	1.869	2.51	3.31	4.307
333.15 K	0.739	1.032	1.41	1.87	2.427	3.105
353.15 K	0.576	0.799	1.084	1.418	1.808	2.265
